Numbered stars: 1 amine (or outer) side, 2 acyl side, 3 side chain; on linkers, the order of the positions; unused ones are H or OH. Square brackets hold non-standard residues; d marks the D form. Side chains are listed from the residue outwards. Peptide text beside a SMILES is read from it. * marks the point of attachment. C20 diacid = O=C(O)CCCCCCCCCCCCCCCCCCC(=O)*; γGlu = O=C(O)[C@H](CCC(=O)[*:2])N[*:1]; AEEA = NCCOCCOCC(=O)O; Aib = CC(C)(N)C(=O)O
How the values were obtained:
human Gcg receptor = target: T1, human Gcg receptor (Homo sapiens, UniProt P47871); test: [125I]-Glucagon binding (SPA), human Gcg receptor; details: read-out: hGLcgR Ki, nM (SEM, n)
T1 construct: expressed in transfected cells; crude membranes
How it was run: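 Cell pellets were lysed in hypotonic Tris buffer, pH 7.5, homogenized, and spun at low then high speed to give crude membranes. Ki was derived from the fitted IC50.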

human GIP receptor = target: T2, human GIP receptor (Homo sapiens, UniProt P48546); test: [125I]-GIP binding (SPA), human GIP receptor; details: read-out: hGIPR Ki, nM (SEM, n)
T2 construct: expressed in transfected cells; crude membranes
T2 sequence (P48546 22-466): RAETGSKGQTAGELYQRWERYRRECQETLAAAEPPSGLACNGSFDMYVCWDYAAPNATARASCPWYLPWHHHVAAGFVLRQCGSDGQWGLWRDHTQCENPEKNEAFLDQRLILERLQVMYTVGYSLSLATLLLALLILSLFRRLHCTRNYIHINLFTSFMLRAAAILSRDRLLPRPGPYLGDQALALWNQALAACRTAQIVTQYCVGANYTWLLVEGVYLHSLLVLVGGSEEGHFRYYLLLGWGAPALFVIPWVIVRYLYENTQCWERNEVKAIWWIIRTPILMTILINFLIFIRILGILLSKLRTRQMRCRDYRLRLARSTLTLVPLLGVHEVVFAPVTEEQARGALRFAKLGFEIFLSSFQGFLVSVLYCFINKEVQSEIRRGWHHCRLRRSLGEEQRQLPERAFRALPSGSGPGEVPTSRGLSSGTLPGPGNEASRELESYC

[1] = target: human GLP-1 receptor (GLP-1R) (Homo sapiens, UniProt P43220); test: cAMP pharmacological functional assay in presence of casein, hGLP-1R; format: cell-based; details: HEK293 cells expressing hGLP-1R, 0.1% Casein, geometric mean; read-out: hGLP1R cAMP Rel EC50 nM (SEM, n)
[2] = target: T3, gastric inhibitory peptide receptor (GIPR) (Homo sapiens, UniProt P48546); test: cAMP pharmacological functional assay in presence of casein, hGIPR; format: cell-based; details: HEK293 cells expressing hGIPR, 0.1% Casein, geometric mean; read-out: hGIPR cAMP Rel EC50 nM (SEM, n)
T3 sequence (P48546 22-466): T2 sequence (P48546 22-466)

human GLP-1R = human GLP-1R (Homo sapiens, UniProt P43220); test: [125I]-GLP-1 binding (SPA), human GLP-1 receptor; parameters: expressed in transfected cells; crude membranes; details: read-out: hGLP1R Ki, (nM) (SEM, n)
How it was run: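 Crude-membrane binding assay; one membrane prep included 1 mM MgCl2 and 25 units/ml DNAse I during lysis. Assay buffer at pH 7.4 contains 0.1% (w/v) bacitracin and 0.003% (w/v) TWEEN-20. Ki is reported as geometric mean.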

T1 sequence (P47871 26-477): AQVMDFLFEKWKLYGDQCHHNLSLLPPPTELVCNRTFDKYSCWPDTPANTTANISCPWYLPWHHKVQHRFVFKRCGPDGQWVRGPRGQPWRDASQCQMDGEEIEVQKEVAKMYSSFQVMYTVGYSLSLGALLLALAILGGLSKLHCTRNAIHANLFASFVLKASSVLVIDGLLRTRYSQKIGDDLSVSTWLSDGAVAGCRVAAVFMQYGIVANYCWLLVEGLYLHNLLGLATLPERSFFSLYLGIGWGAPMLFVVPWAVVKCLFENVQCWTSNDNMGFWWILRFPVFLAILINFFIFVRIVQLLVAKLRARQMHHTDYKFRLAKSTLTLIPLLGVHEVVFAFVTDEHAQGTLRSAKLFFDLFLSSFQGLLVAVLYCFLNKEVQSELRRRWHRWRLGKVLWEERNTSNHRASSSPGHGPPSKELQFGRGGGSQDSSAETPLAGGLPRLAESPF
Chain of human GLP-1 receptor (GLP-1R) (P43220 24-463): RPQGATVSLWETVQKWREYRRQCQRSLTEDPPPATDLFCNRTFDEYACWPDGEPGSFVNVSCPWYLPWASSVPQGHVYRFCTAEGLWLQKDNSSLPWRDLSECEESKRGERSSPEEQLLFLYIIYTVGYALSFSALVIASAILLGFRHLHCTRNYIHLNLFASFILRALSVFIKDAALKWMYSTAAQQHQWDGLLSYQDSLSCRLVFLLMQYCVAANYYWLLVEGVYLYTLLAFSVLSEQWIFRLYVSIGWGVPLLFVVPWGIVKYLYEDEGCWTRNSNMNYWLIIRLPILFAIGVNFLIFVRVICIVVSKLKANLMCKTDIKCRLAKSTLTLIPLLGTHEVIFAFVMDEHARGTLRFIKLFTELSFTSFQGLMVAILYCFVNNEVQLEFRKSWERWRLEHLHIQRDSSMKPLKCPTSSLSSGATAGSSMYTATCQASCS
Chain of human GLP-1R (P43220 24-463): as above

| Compound | Ki (human Gcg receptor) [nM] | Ki (human GIP receptor) [nM] | EC50 [1] [nM] | EC50 [2] [nM] | Ki (human GLP-1R) [nM] |
| --- | --- | --- | --- | --- | --- |
| CC[C@H](C)[C@H](NC(=O)[C@H](CCCCN)NC(=O)[C@H](CC(=O)O)NC(=O)[C@H](CC(C)C)NC(=O)[C@H](CC(C)C)NC(=O)[C@H](CCCCNC(=O)COCCOCCNC(=O)COCCOCCNC(=O)CC[C@H](NC(=O)CCCCCCCCCCCCCCCCCCC(=O)O)C(=O)O)NC(=O)[C@H](CO)NC(=O)[C@H](Cc1ccc(O)cc1)NC(=O)[C@H](CC(=O)O)NC(=O)[C@H](CO)NC(=O)[C@@H](NC(=O)[C@H](Cc1ccccc1)NC(=O)[C@@H](NC(=O)CNC(=O)[C@H](CCC(=O)O)NC(=O)C(C)(C)NC(=O)[C@@H](N)Cc1ccc(O)cc1)[C@@H](C)O)[C@@H](C)O)C(=O)N[C@@H](C)C(=O)N[C@@H](CCC(N)=O)C(=O)NC(C)(C)C(=O)N[C@@H](C)C(=O)N[C@@H](Cc1ccccc1)C(=O)N[C@H](C(=O)N[C@@H](CCC(=O)O)C(=O)N[C@@H](Cc1ccc(O)cc1)C(=O)N[C@@H](CC(C)C)C(=O)N[C@H](C(=O)N[C@@H](CCC(=O)O)C(=O)NCC(=O)NCC(=O)N1CCC[C@H]1C(=O)N[C@@H](CO)C(=O)N[C@@H](CO)C(=O)NCC(=O)N[C@@H](C)C(=O)N1CCC[C@H]1C(=O)N1CCC[C@H]1C(=O)N1CCC[C@H]1C(=O)N[C@@H](CO)C(N)=O)[C@@H](C)CC)[C@@H](C)CC [Example 25] (H-Y[Aib]EGTFTSDYSK([AEEA-AEEA-γGlu-C20 diacid])LLDKIAQ[Aib]AFIEYLIEGGPSSGAPPPS-NH2) | 81.1 | 0.179 | 0.356 | 0.23 | 4.8 |
| CC[C@H](C)[C@H](NC(=O)[C@H](CCCCN)NC(=O)[C@H](CC(=O)O)NC(=O)[C@H](CC(C)C)NC(=O)[C@H](CCCCNC(=O)COCCOCCNC(=O)COCCOCCNC(=O)CC[C@H](NC(=O)CCCCCCCCCCCCCCCCCCC(=O)O)C(=O)O)NC(=O)[C@@H](NC(=O)[C@H](CO)NC(=O)[C@H](Cc1ccc(O)cc1)NC(=O)[C@H](CC(=O)O)NC(=O)[C@H](CO)NC(=O)[C@@H](NC(=O)[C@H](Cc1ccccc1)NC(=O)[C@@H](NC(=O)CNC(=O)[C@H](CCC(=O)O)NC(=O)C(C)(C)NC(=O)[C@@H](N)Cc1ccc(O)cc1)[C@@H](C)O)[C@@H](C)O)[C@@H](C)CC)C(=O)N[C@@H](C)C(=O)N[C@@H](CCC(N)=O)C(=O)NC(C)(C)C(=O)N[C@@H](C)C(=O)N[C@@H](Cc1ccccc1)C(=O)N[C@H](C(=O)N[C@@H](CCC(=O)O)C(=O)N[C@@H](Cc1ccc(O)cc1)C(=O)N[C@@H](CC(C)C)C(=O)N[C@H](C(=O)N[C@@H](CCC(=O)O)C(=O)NCC(=O)NCC(=O)N1CCC[C@H]1C(=O)N[C@@H](CO)C(=O)N[C@@H](CO)C(=O)NCC(=O)N[C@@H](C)C(=O)N1CCC[C@H]1C(=O)N1CCC[C@H]1C(=O)N1CCC[C@H]1C(=O)N[C@@H](CO)C(N)=O)[C@@H](C)CC)[C@@H](C)CC [Example 26] (H-Y[Aib]EGTFTSDYSIK([AEEA-AEEA-γGlu-C20 diacid])LDKIAQ[Aib]AFIEYLIEGGPSSGAPPPS-NH2) | > 960 | 0.176 | 0.293 | 0.251 | 4.22 |
| CC[C@H](C)[C@H](NC(=O)[C@H](CCCCN)NC(=O)[C@H](CC(=O)O)NC(=O)[C@H](CCCCNC(=O)COCCOCCNC(=O)COCCOCCNC(=O)CC[C@H](NC(=O)CCCCCCCCCCCCCCCCCCC(=O)O)C(=O)O)NC(=O)[C@H](CC(C)C)NC(=O)[C@@H](NC(=O)[C@H](CO)NC(=O)[C@H](Cc1ccc(O)cc1)NC(=O)[C@H](CC(=O)O)NC(=O)[C@H](CO)NC(=O)[C@@H](NC(=O)[C@H](Cc1ccccc1)NC(=O)[C@@H](NC(=O)CNC(=O)[C@H](CCC(=O)O)NC(=O)C(C)(C)NC(=O)[C@@H](N)Cc1ccc(O)cc1)[C@@H](C)O)[C@@H](C)O)[C@@H](C)CC)C(=O)N[C@@H](C)C(=O)N[C@@H](CCC(N)=O)C(=O)NC(C)(C)C(=O)N[C@@H](C)C(=O)N[C@@H](Cc1ccccc1)C(=O)N[C@H](C(=O)N[C@@H](CCC(=O)O)C(=O)N[C@@H](Cc1ccc(O)cc1)C(=O)N[C@@H](CC(C)C)C(=O)N[C@H](C(=O)N[C@@H](CCC(=O)O)C(=O)NCC(=O)NCC(=O)N1CCC[C@H]1C(=O)N[C@@H](CO)C(=O)N[C@@H](CO)C(=O)NCC(=O)N[C@@H](C)C(=O)N1CCC[C@H]1C(=O)N1CCC[C@H]1C(=O)N1CCC[C@H]1C(=O)N[C@@H](CO)C(N)=O)[C@@H](C)CC)[C@@H](C)CC [Example 27] (H-Y[Aib]EGTFTSDYSILK([AEEA-AEEA-γGlu-C20 diacid])DKIAQ[Aib]AFIEYLIEGGPSSGAPPPS-NH2) | 315 | 0.103 | 0.557 | 0.0789 | 3.68 |
| CC[C@H](C)[C@H](NC(=O)[C@H](CCCCN)NC(=O)[C@H](CCCCNC(=O)COCCOCCNC(=O)COCCOCCNC(=O)CC[C@H](NC(=O)CCCCCCCCCCCCCCCCCCC(=O)O)C(=O)O)NC(=O)[C@H](CC(C)C)NC(=O)[C@H](CC(C)C)NC(=O)[C@@H](NC(=O)[C@H](CO)NC(=O)[C@H](Cc1ccc(O)cc1)NC(=O)[C@H](CC(=O)O)NC(=O)[C@H](CO)NC(=O)[C@@H](NC(=O)[C@H](Cc1ccccc1)NC(=O)[C@@H](NC(=O)CNC(=O)[C@H](CCC(=O)O)NC(=O)C(C)(C)NC(=O)[C@@H](N)Cc1ccc(O)cc1)[C@@H](C)O)[C@@H](C)O)[C@@H](C)CC)C(=O)N[C@@H](C)C(=O)N[C@@H](CCC(N)=O)C(=O)NC(C)(C)C(=O)N[C@@H](C)C(=O)N[C@@H](Cc1ccccc1)C(=O)N[C@H](C(=O)N[C@@H](CCC(=O)O)C(=O)N[C@@H](Cc1ccc(O)cc1)C(=O)N[C@@H](CC(C)C)C(=O)N[C@H](C(=O)N[C@@H](CCC(=O)O)C(=O)NCC(=O)NCC(=O)N1CCC[C@H]1C(=O)N[C@@H](CO)C(=O)N[C@@H](CO)C(=O)NCC(=O)N[C@@H](C)C(=O)N1CCC[C@H]1C(=O)N1CCC[C@H]1C(=O)N1CCC[C@H]1C(=O)N[C@@H](CO)C(N)=O)[C@@H](C)CC)[C@@H](C)CC [Example 28] (H-Y[Aib]EGTFTSDYSILLK([AEEA-AEEA-γGlu-C20 diacid])KIAQ[Aib]AFIEYLIEGGPSSGAPPPS-NH2) | > 902 | 0.24 | 32.7 | 1.66 | 21.1 |
| CC[C@H](C)[C@H](NC(=O)[C@H](CCCCNC(=O)COCCOCCNC(=O)COCCOCCNC(=O)CC[C@H](NC(=O)CCCCCCCCCCCCCCCCCCC(=O)O)C(=O)O)NC(=O)[C@H](CC(=O)O)NC(=O)[C@H](CC(C)C)NC(=O)[C@H](CC(C)C)NC(=O)[C@@H](NC(=O)[C@H](CO)NC(=O)[C@H](Cc1ccc(O)cc1)NC(=O)[C@H](CC(=O)O)NC(=O)[C@H](CO)NC(=O)[C@@H](NC(=O)[C@H](Cc1ccccc1)NC(=O)[C@@H](NC(=O)CNC(=O)[C@H](CCC(=O)O)NC(=O)C(C)(C)NC(=O)[C@@H](N)Cc1ccc(O)cc1)[C@@H](C)O)[C@@H](C)O)[C@@H](C)CC)C(=O)N[C@@H](C)C(=O)N[C@@H](CCC(N)=O)C(=O)NC(C)(C)C(=O)N[C@@H](C)C(=O)N[C@@H](Cc1ccccc1)C(=O)N[C@H](C(=O)N[C@@H](CCC(=O)O)C(=O)N[C@@H](Cc1ccc(O)cc1)C(=O)N[C@@H](CC(C)C)C(=O)N[C@H](C(=O)N[C@@H](CCC(=O)O)C(=O)NCC(=O)NCC(=O)N1CCC[C@H]1C(=O)N[C@@H](CO)C(=O)N[C@@H](CO)C(=O)NCC(=O)N[C@@H](C)C(=O)N1CCC[C@H]1C(=O)N1CCC[C@H]1C(=O)N1CCC[C@H]1C(=O)N[C@@H](CO)C(N)=O)[C@@H](C)CC)[C@@H](C)CC [Example 29] (H-Y[Aib]EGTFTSDYSILLDK([AEEA-AEEA-γGlu-C20 diacid])IAQ[Aib]AFIEYLIEGGPSSGAPPPS-NH2) | 132 | 0.377 | 0.999 | 0.32 | 8 |

From patent publication US12252524B2, “GIP/GLP1 co-agonist compounds” (Eli Lilly and Company, priority 2018, dated 2025)
